# Experimental data as given in patent US20160375006A1, “USES OF PARALOG-SELECTIVE INHIBITORS OF GSK3 KINASES” (priority 2012, published 2016).
# Legend:
# DYRK1A = DYRK1A (Homo sapiens, UniProt Q13627)
# Procedure: (§1) This was completed utilizing one of two assays depending on the kinase being examined.
# (§2) A solution of IMAP binding reagent (IMAP Screening Express kit; Molecular Devices) (60 μL) was added to each well and incubated for 30 minutes.
# (§3) A solution of termination buffer (QuickScout Screening assist MSA; Carna Biosciences) (60 μL) was added to each well. The entire reaction mixture was then applied to a LabChip3000 system (Caliper Life Science) and the product and substrate peptide peaks were separated and quantified.
# (§4) The assay utilized was identical to that of the single point inhibitory activity determination (MSA) but run in dose response. […] A solution of termination buffer (QuickScout Screening assist MSA; Carna Biosciences) (60 μL) was added to each well. The entire reaction mixture was then applied to a LabChip3000 system (Caliper Life Science) and the product and substrate peptide peaks were separated and quantified.
# CaMK4 = CaMK4 (Homo sapiens, UniProt Q16566)
# Procedure: as §1, §2, §3, §4
# ALK(L1196M) = ALK(L1196M) (Homo sapiens, UniProt Q9UM73, L1196M)
# Procedure: as §1, §2, §3, §4
# ALK(F1174L) = ALK(F1174L) (Homo sapiens, UniProt Q9UM73, F1174L)
# Procedure: as §1, §2, §3
# JNK1 = JNK1 (Homo sapiens, UniProt P45983)
# Procedure: as §1, §2, §3, §4
# CK2α2/β = CK2α2/β (Homo sapiens, UniProt P19784)
# Procedure: as §1, §2, §3, §4
# EPHA5 = EPHA5 (Homo sapiens, UniProt P54756)
# EPHA5, sequence (P54756 25-1037): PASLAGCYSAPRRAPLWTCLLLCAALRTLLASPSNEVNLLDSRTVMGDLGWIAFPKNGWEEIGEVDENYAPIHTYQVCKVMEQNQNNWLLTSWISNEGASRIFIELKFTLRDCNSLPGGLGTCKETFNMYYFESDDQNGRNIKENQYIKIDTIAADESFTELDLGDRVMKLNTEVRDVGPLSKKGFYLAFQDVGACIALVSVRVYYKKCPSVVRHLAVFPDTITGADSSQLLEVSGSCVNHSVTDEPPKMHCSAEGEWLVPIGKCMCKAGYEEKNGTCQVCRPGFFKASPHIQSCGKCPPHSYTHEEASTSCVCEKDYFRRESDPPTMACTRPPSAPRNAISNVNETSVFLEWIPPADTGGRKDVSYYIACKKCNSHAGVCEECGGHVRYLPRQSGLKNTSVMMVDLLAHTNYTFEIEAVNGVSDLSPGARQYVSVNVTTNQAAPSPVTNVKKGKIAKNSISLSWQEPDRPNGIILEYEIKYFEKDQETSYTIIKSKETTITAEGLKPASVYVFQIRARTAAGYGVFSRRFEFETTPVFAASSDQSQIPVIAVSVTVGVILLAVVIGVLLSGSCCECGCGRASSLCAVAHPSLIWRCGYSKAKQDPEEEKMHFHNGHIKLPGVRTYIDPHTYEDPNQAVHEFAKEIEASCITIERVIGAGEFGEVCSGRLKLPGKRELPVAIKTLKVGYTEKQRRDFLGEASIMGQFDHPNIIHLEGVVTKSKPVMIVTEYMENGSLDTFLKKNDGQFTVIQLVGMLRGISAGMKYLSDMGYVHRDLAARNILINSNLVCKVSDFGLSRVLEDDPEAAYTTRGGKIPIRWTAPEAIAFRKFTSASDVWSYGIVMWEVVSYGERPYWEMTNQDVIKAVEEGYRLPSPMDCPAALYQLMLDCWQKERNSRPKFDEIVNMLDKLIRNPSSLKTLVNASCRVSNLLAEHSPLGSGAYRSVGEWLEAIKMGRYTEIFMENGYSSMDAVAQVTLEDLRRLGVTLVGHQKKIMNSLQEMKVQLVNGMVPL
# Procedure: as §1, §2, §3, §4
# p70S6K = p70S6K (Homo sapiens, UniProt P23443)
# Procedure: as §1, §2, §3, §4
# PKD1 = PKD1 (Homo sapiens, UniProt Q15139)
# PKD1, sequence (Q15139 whole entry): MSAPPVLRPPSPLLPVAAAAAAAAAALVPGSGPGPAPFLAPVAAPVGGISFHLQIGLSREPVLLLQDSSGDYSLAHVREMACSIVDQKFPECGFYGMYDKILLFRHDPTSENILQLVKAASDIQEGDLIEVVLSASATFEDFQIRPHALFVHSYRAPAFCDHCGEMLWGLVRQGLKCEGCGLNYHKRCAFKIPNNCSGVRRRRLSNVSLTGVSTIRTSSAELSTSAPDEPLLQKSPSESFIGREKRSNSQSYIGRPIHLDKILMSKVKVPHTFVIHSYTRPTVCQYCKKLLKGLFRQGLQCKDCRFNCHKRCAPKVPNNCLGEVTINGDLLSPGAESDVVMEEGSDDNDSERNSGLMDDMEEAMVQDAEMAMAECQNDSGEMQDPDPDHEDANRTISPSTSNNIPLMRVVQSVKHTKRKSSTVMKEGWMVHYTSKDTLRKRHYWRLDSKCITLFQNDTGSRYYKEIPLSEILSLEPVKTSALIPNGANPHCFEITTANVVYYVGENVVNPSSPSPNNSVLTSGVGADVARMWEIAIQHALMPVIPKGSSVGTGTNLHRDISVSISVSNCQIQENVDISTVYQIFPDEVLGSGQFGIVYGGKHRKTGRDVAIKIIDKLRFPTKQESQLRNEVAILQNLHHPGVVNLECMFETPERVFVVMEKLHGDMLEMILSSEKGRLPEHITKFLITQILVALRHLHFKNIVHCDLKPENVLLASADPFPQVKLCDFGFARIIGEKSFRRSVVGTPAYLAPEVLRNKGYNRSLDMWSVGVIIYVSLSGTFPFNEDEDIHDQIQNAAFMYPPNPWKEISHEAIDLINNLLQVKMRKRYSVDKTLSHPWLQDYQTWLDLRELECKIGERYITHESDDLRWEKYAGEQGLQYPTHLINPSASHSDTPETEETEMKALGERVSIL
# Procedure: as §1, §2, §3, §4
# KIT(T670I) = KIT(T670I) (Homo sapiens, UniProt P10721, T670I)
# Procedure: as §1, §2, §3, §4
# NEK4 = NEK4 (Homo sapiens, UniProt P51957)
# Procedure: as §1, §2, §3, §4
# MRCKβ = MRCKβ (Homo sapiens, UniProt Q9Y5S2)
# Procedure: as §1, §2, §3, §4
# EPHA4 = EPHA4 (Homo sapiens, UniProt P54764)
# Procedure: as §1, §2, §3, §4
# EPHA3 = EPHA3 (Homo sapiens, UniProt P29320)
# Procedure: as §1, §2, §3, §4
# FGR = FGR (Homo sapiens, UniProt P09769)
# Procedure: as §1, §2, §3, §4
# PLK1 = biological target: T1, PLK1 (Homo sapiens, UniProt P53350); experiment: Carna kinase panel; assay type: biochemical
# T1 construct: purchased Carna Biosciences
# Procedure: as §1, §2, §3
# TIE2 = TIE2 (Homo sapiens, UniProt Q02763)
# Procedure: as §1, §2, §3, §4
# TBK1 = TBK1 (Homo sapiens, UniProt Q9UHD2)
# Procedure: as §1, §2, §3
# TSSK3 = TSSK3 (Homo sapiens, UniProt Q96PN8)
# Procedure: as §1, §2, §3, §4
# FGFR4 = FGFR4 (Homo sapiens, UniProt P22455)
# Procedure: as §1, §2, §3
# TYK2 = TYK2 (Homo sapiens, UniProt P29597)
# Procedure: as §2, §3, §4
# FGFR1 = FGFR1 (Homo sapiens, UniProt P11362)
# FGFR1, sequence (P11362 22-822): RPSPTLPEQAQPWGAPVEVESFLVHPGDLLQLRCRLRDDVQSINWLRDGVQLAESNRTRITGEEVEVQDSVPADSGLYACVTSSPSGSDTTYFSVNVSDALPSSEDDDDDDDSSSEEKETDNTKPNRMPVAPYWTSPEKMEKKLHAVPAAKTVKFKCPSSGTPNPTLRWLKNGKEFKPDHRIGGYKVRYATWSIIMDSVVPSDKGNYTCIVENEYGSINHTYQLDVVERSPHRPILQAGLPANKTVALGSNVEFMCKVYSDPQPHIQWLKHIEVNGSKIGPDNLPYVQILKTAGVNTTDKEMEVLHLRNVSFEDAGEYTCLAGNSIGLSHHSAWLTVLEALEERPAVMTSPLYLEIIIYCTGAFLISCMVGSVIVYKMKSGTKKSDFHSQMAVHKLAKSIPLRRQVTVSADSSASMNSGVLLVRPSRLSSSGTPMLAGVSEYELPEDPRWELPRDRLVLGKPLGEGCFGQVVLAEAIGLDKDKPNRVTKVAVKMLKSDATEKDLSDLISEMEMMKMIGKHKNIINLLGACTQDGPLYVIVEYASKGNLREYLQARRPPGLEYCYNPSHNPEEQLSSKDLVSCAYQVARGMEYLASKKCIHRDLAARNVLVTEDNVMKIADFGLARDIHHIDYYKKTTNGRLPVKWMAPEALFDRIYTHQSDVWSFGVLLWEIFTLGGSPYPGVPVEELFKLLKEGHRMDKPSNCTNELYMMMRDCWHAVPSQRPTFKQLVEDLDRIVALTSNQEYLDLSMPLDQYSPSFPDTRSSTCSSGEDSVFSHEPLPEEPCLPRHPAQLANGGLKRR
# Procedure: as §1, §2, §3, §4
# WNK3 = WNK3 (Homo sapiens, UniProt Q9BYP7)
# Procedure: as §1, §2, §3, §4
# MINK = MINK (Homo sapiens, UniProt Q8N4C8)
# Procedure: as §1, §2, §3, §4
# MAPKAPK2 = MAPKAPK2 (Homo sapiens, UniProt P49137)
# MAPKAPK2, sequence (P49137 whole entry): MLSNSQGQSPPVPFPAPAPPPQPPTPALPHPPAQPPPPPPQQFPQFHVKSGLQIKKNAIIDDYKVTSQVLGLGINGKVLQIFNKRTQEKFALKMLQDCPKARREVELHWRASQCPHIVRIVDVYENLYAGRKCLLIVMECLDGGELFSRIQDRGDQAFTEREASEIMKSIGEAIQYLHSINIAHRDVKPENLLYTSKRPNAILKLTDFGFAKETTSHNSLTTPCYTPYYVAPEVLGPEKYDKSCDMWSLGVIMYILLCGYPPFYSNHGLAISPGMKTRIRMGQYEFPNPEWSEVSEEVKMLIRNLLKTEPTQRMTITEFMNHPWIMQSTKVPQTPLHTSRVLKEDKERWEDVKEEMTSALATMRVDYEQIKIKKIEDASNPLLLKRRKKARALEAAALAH
# Procedure: as §1, §2, §3, §4
# INSR = INSR (Homo sapiens, UniProt P06213)
# COT_Cascade = COT_Cascade (Homo sapiens, UniProt P41279)
# COT_Cascade, sequence (P41279 whole entry): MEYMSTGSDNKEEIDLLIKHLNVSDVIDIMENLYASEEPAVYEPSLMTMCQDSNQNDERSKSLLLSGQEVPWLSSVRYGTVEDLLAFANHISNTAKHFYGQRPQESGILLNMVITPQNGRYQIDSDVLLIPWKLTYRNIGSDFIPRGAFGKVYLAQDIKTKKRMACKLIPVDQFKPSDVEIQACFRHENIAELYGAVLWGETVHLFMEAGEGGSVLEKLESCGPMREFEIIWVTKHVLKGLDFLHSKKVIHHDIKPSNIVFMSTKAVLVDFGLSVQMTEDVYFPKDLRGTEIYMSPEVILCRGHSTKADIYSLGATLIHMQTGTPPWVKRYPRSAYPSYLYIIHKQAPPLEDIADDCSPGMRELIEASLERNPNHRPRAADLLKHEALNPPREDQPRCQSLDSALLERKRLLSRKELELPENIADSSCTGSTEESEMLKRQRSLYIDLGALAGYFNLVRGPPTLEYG
# Procedure: as §1, §2, §3, §4
# RSK4 = RSK4 (Homo sapiens, UniProt Q9UK32)
# Procedure: as §1, §2, §3
# MARK3 = MARK3 (Homo sapiens, UniProt P27448)
# Procedure: as §1, §2, §3, §4
# ROS = ROS (Homo sapiens, UniProt P08922)
# Procedure: as §1, §2, §3, §4
# SRC = SRC (Homo sapiens, UniProt P12931)
# Procedure: as §1, §2, §3, §4
# HIPK2 = HIPK2 (Homo sapiens, UniProt Q9H2X6)
# Procedure: as §1, §2, §3, §4
# PKD3 = PKD3 (Homo sapiens, UniProt O94806)
# Procedure: as §1, §2, §3
# MGC42105 = MGC42105 (Homo sapiens, UniProt Q8IY84)
# Procedure: as §1, §2, §3, §4
# PIM3 = PIM3 (Homo sapiens, UniProt Q86V86)
# Procedure: as §1, §2, §3
# CSK = CSK (Homo sapiens, UniProt P41240)
# Procedure: as §1, §2, §3, §4
# IGF1R = IGF1R (Homo sapiens, UniProt P08069)
# Procedure: as §1, §2, §3, §4
# AKT3 = AKT3 (Homo sapiens, UniProt Q9Y243)
# Procedure: as §1, §2, §3, §4
# WNK1 = WNK1 (Homo sapiens, UniProt Q9H4A3)
# Source text: as §1
# The assay utilized was identical to that of the single point inhibitory activity determination (MSA) but run in dose response.
# MER = MER (Homo sapiens, UniProt Q12866)
# MER, sequence (Q12866 21-999): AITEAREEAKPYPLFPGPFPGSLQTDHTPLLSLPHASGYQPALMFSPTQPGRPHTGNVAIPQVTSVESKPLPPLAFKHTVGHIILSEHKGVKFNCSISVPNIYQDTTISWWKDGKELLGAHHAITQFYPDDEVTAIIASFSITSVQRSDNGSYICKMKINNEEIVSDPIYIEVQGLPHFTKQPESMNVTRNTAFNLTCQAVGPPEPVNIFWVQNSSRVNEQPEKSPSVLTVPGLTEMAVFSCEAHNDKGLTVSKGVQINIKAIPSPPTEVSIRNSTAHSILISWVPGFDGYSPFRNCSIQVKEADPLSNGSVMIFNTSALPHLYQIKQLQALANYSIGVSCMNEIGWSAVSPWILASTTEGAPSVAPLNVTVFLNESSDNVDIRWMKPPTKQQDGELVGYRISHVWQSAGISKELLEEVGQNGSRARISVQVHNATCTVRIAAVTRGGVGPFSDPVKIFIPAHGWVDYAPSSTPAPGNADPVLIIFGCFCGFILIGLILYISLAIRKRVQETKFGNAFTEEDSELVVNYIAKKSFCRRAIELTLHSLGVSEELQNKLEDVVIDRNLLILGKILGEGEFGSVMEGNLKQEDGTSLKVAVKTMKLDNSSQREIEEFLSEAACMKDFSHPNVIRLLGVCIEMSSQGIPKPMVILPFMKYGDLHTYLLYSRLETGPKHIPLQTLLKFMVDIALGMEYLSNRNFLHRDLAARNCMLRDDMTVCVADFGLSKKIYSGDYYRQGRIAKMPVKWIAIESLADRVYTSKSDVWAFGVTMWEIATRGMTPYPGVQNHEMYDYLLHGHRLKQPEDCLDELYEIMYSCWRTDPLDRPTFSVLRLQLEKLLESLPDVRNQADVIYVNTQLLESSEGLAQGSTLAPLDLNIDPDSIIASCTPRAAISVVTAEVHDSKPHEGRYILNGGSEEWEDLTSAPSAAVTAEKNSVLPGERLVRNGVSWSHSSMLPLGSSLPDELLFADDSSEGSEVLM
# Procedure: as §1, §2, §3, §4
# MELK = biological target: T2, MELK (Homo sapiens, UniProt Q14680); experiment: Carna kinase panel; assay type: biochemical
# T2 construct: purchased Carna Biosciences
# Procedure: as §1, §2, §3
# CaMK4, sequence (Q16566 whole entry): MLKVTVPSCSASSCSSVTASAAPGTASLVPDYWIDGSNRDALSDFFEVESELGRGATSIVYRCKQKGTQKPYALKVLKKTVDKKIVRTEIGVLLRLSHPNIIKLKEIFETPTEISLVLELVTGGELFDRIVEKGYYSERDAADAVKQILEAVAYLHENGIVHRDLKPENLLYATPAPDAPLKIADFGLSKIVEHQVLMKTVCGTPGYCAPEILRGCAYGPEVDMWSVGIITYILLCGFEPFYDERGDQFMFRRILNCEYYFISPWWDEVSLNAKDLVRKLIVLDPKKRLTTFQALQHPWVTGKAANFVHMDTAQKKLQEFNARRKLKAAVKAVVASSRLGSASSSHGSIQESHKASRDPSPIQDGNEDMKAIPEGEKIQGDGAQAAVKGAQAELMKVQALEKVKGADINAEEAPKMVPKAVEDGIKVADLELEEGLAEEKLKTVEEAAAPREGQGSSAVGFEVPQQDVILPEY
smiles,measurement,setting,value
CC[C@@]1(c2ccccc2)C2=C(CC(C)(C)CC2=O)Nc2n[nH]cc21 [BRD0705],% Inhibition at 10 μM,DYRK1A,−3.1%
same,% Inhibition at 10 μM,CaMK4,−7.1%
same,% Inhibition at 10 μM,ALK(L1196M),0.4%
same,% Inhibition at 10 μM,ALK(F1174L),1.7%
same,% Inhibition at 10 μM,JNK1,−3.9%
same,% Inhibition at 10 μM,CK2α2/β,−7.0%
same,% Inhibition at 10 μM,EPHA5,12.7%
same,% Inhibition at 10 μM,p70S6K,−7.8%
same,% Inhibition at 10 μM,PKD1,−6.8%
same,% Inhibition at 10 μM,KIT(T670I),−0.8%
same,% Inhibition at 10 μM,NEK4,−5.1%
same,% Inhibition at 10 μM,MRCKβ,−9.1%
same,% Inhibition at 10 μM,EPHA4,4.0%
same,% Inhibition at 10 μM,EPHA3,25.2%
same,% Inhibition at 10 μM,FGR,−3.4%
same,% Inhibition at 10 μM,PLK1,−12.3%
same,% Inhibition at 10 μM,TIE2,0.3%
same,% Inhibition at 10 μM,TBK1,1.7%
same,% Inhibition at 10 μM,TSSK3,3.5%
same,% Inhibition at 10 μM,FGFR4,−13.4%
same,% Inhibition at 10 μM,TYK2,−2.2%
same,% Inhibition at 10 μM,FGFR1,−2.7%
same,% Inhibition at 10 μM,WNK3,−3.7%
same,% Inhibition at 10 μM,MINK,2.4%
same,% Inhibition at 10 μM,MAPKAPK2,−22.4%
same,% Inhibition at 10 μM,INSR,−1.4%
same,% Inhibition at 10 μM,COT_Cascade,11.2%
same,% Inhibition at 10 μM,RSK4,1.1%
same,% Inhibition at 10 μM,MARK3,−5.3%
same,% Inhibition at 10 μM,ROS,31.3%
same,% Inhibition at 10 μM,SRC,3.2%
same,% Inhibition at 10 μM,HIPK2,−0.5%
same,% Inhibition at 10 μM,PKD3,3.9%
same,% Inhibition at 10 μM,MGC42105,−9.9%
same,% Inhibition at 10 μM,PIM3,1.2%
same,% Inhibition at 10 μM,CSK,0.9%
same,% Inhibition at 10 μM,IGF1R,−2.5%
same,% Inhibition at 10 μM,AKT3,−8.3%
same,% Inhibition at 10 μM,WNK1,−4.2%
same,% Inhibition at 10 μM,MER,−3.3%
same,% Inhibition at 10 μM,MELK,−5.6%
CC(C)(C)Cc1[nH]nc2c1[C@](C)(c1ccccc1)C1=C(CC(C)(C)CC1=O)N2 [BRD3731],% Inhibition 10 μM,DYRK1A; 10 μM,3.3%
same,% Inhibition 10 μM,CaMK4; 10 μM,12.4%
same,% Inhibition 10 μM,ALK(L1196M); 10 μM,3.6%
same,% Inhibition 10 μM,ALK(F1174L); 10 μM,0.2%
same,% Inhibition 10 μM,JNK1; 10 μM,−6.0%
same,% Inhibition 10 μM,CK2α2/β; 10 μM,−2.3%
same,% Inhibition 10 μM,EPHA5; 10 μM,−5.5%
same,% Inhibition 10 μM,p70S6K; 10 μM,12.5%
same,% Inhibition 10 μM,PKD1; 10 μM,8.9%
same,% Inhibition 10 μM,KIT(T670I); 10 μM,−0.3%
same,% Inhibition 10 μM,NEK4; 10 μM,−4.8%
same,% Inhibition 10 μM,MRCKβ; 10 μM,−0.7%
same,% Inhibition 10 μM,EPHA4; 10 μM,−2.7%
same,% Inhibition 10 μM,EPHA3; 10 μM,3.0%
same,% Inhibition 10 μM,FGR; 10 μM,12.0%
same,% Inhibition 10 μM,PLK1; 10 μM,−0.7%
same,% Inhibition 10 μM,TIE2; 10 μM,6.7%
same,% Inhibition 10 μM,TBK1; 10 μM,−0.5%
same,% Inhibition 10 μM,TSSK3; 10 μM,33.6%
same,% Inhibition 10 μM,FGFR4; 10 μM,−8.1%
same,% Inhibition 10 μM,TYK2; 10 μM,4.6%
same,% Inhibition 10 μM,FGFR1; 10 μM,2.3%
same,% Inhibition 10 μM,WNK3; 10 μM,2.1%
same,% Inhibition 10 μM,MINK; 10 μM,2.2%
same,% Inhibition 10 μM,MAPKAPK2; 10 μM,22.4%
same,% Inhibition 10 μM,INSR; 10 μM,−2.8%
same,% Inhibition 10 μM,COT_Cascade; 10 μM,10.5%
same,% Inhibition 10 μM,RSK4; 10 μM,33.9%
same,% Inhibition 10 μM,MARK3; 10 μM,−2.1%
same,% Inhibition 10 μM,ROS; 10 μM,0.9%
same,% Inhibition 10 μM,SRC; 10 μM,1.0%
same,% Inhibition 10 μM,HIPK2; 10 μM,3.2%
same,% Inhibition 10 μM,PKD3; 10 μM,2.6%
same,% Inhibition 10 μM,MGC42105; 10 μM,−2.4%
same,% Inhibition 10 μM,PIM3; 10 μM,13.1%
same,% Inhibition 10 μM,CSK; 10 μM,1.9%
same,% Inhibition 10 μM,IGF1R; 10 μM,−1.5%
same,% Inhibition 10 μM,AKT3; 10 μM,−6.4%
same,% Inhibition 10 μM,WNK1; 10 μM,−1.0%
same,% Inhibition 10 μM,MER; 10 μM,33.7%
same,% Inhibition 10 μM,MELK; 10 μM,39.2%
